From article PMC4884984, “Identification of approved and investigational drugs that inhibit hypoxia-inducible factor-1 signaling” (Oncotarget, 2016)
Where two headings read alike, the source gives them in different places.

Assays:
[1] = system: hypoxia response element-beta-lactamase (HRE–bla); assay: HRE-bla reporter gene assay in ME-180 cells; assay type: cell-based, human; settings: for Emax / IC50: Homo sapiens
Procedure: (§1) Cell culture of HRE–bla ME-180 cells (Cat. No. K1644, Life Technologies) and HRE–bla assay were conducted according to a reported protocol [6]. […] The fluorescence signals (460/25 nm and 530/20 nm) of CCF4 and luminescence signals of CellTiter-Glo were acquired on an Envision and a ViewLux plate readers (Perkin Elmer), respectively.

HRE–bla ME-180 cells = assay: Viability (BLA): CellTiter-Glo counter screen in HRE–bla cells; assay type: cell-based, human; settings: for IC50: 1% O2, 18 h; for Viability (BLA) confirmatory IC50: Table S7, 1% O2, 18 h
Procedure: as §1

HCT116 cells = assay: Cancer cell proliferation assay, HCT116; assay type: cell-based, human; settings: for Emax / IC50: Homo sapiens; for Emax: read-out: HCT116 3-Day Viability Efficacy
Procedure: (§2) HCT116 and ME-180 cells (ATCC) were cultured according to manufacturer's instructions. […] Cell proliferation was quantified as relative luminescence unit (RLU) values using CellTiter-Glo viability assay reagent on a ViewLux plate reader (Perkin Elmer).

ME-180 cells = assay: Cancer cell proliferation assay, ME-180; assay type: cell-based; settings: Homo sapiens; for Emax: read-out: ME-180 3-Day Viability Efficacy
Procedure: as §2

[2] = system: co-cultures of human aortic endothelial cells and human mesenchymal stem cells; assay: In vitro angiogenesis co-culture assay (tube formation); assay type: cell-based; settings: three-day exposure; for IC50 / Emax: Homo sapiens, 72 h, Table 1; for IC50: tube formation; for Emax: percentage of inhibition compared to DMSO controls, read-out: Angiogenesis Efficacy (converted)
Procedure: Cells were seeded in a 96-well clear bottom plate (Corning) for five hours and exposed to test compounds for three days at 37°C, 5% CO2.

HIF-1α–NanoLuc = HIF-1α–NanoLuc reporter gene assay (qHTS primary and confirmatory screens); assay type: cell-based, human; settings: Homo sapiens
[3] = system: HIF-1α–NanoLuc HCT116 cells; assay: Viability (Luc): CellTiter-Glo counter screen in HIF-1α–NanoLuc cells; assay type: cell-based, human; settings: for Viability (Luc) confirmatory IC50: Table S7, 1% O2, 18 h
[4] = ME-180, Table 1, percentage of inhibition compared to DMSO controls, read-out: HRE-bla Efficacy (converted)
[5] = ME-180, Table S7, confirmatory screen, read-out: HRE–bla confirmatory Efficacy
[6] = ME-180, Table S7, confirmatory screen, read-out: HRE–bla confirmatory IC50
[7] = Table 1, ME-180 cells, 1% O2, 18 h, read-out: HRE-bla IC50
[8] = Homo sapiens, ME-180, Table S7, confirmatory screen
[9] = HCT-116, 72 h, Table S8, 3 days
[10] = ME-180, Table 1, 72 h, read-out: 72-hr Viability ME-180 IC50
[11] = HCT-116, Table 1, HCT116 reporter cells, hypoxia 1% O2, 18 h, confirmatory, read-out: HIF-1α-NanoLuc IC50
[12] = Table 1, percentage of inhibition compared to DMSO controls, read-out: HIF-1α-NanoLuc Efficacy (converted)
[13] = Table S2, primary screen, read-out: Pathway inhibitors (primary screen) HIF-1α–NanoLuc Activity Efficacy
[14] = Table S2, primary screen, read-out: Pathway inhibitors (primary screen) HIF-1α–NanoLuc Activity IC50
[15] = Table S2, validation, read-out: Pathway inhibitors (validation) HIF-1α–NanoLuc Activity Efficacy
[16] = Table S7, confirmatory screen, read-out: HIF-1α–NanoLuc confirmatory Efficacy
[17] = Table S7, primary screen, read-out: HIF-1α–NanoLuc primary Efficacy
[18] = HCT-116, Table 1, 72 h, read-out: 72-hr Viability HCT116 IC50
[19] = 18 h, read-out: IC50 (primary screen, HIF-1α–NanoLuc assay)
[20] = read-out: Efficacy (primary screen, HIF-1α–NanoLuc assay)
[21] = read-out: HIF-1α–NanoLuc confirmatory Efficacy
[22] = read-out: HIF-1α–NanoLuc confirmatory IC50
[23] = read-out: HIF-1α–NanoLuc primary Efficacy
[24] = HCT-116, 72 h, Table S8, 3 days, read-out: HCT116 3-Day Viability IC50
[25] = ME-180, 72 h, Table S8, 3 days, read-out: ME-180 3-Day Viability IC50

Row | Structure (SMILES) | Emax [1, 4] [%] | Emax [1, 5] [%] | IC50 [1, 6] [nM] | IC50 [1, 7] [nM] | IC50 (HRE–bla ME-180 cells; [8]) [nM] | IC50 (ME-180 cells; [10]) [nM] | IC50 [2] [nM] | Emax [2] [%] | IC50 (HIF-1α–NanoLuc; [11]) [nM] | Emax (HIF-1α–NanoLuc; [12]) [%] | Emax (HIF-1α–NanoLuc; [15]) [%] | Emax (HIF-1α–NanoLuc; [16]) [%] | Emax (HIF-1α–NanoLuc; [17]) [%] | Viability (Luc) confirmatory IC50 [3] | IC50 (HCT116 cells; [18]) [nM] | Viability (BLA) confirmatory IC50 (HRE–bla ME-180 cells) | further results
1 | O=C(Nc1ccc([N+](=O)[O-])cc1Cl)c1cc(Cl)ccc1O [Niclosamide] | 91 | 84 ± 6 | 1670 ± 460 | 230 ± 50 | 1630 ± 2580 | 2040 | 40 ± 30 | 87 | – | – | – | – | – | – | – | – | Emax (HCT116 cells; [9]): 83 ± 6%
2 | O=C1c2c(O)ccc(O)c2C(=O)c2c(NCCNCCO)ccc(NCCNCCO)c21 [Mitoxantrone] | 99 | 99 ± 10 | – | 860 ± 520 | 13400 ± 4400 | 110 ± 30 | 4 ± 3 | 101 | 7650 ± 2130 | 110 | 110 ± 5 | 110 ± 5 | 80 | Inactive | 11100 ± 4790 | – | IC50 (HIF-1α–NanoLuc; Table S1, primary screen, hypoxia 1% O2, 18 h, read-out: IC50 (primary screen, HIF-1α–NanoLuc assay)): 2380 nM; Emax (HIF-1α–NanoLuc; Table S1, primary screen, read-out: Efficacy (primary screen, HIF-1α–NanoLuc assay)): 80%; Emax (HIF-1α–NanoLuc; [13]): 80%; IC50 (HIF-1α–NanoLuc; [14]): 2370 nM
3 | CCN(CC)CCNC(=O)c1c(C)[nH]c(/C=C2\C(=O)Nc3ccc(F)cc32)c1C [Sunitinib] | 81 | 81 ± 32 | – | 17000 ± 3170 | 16000 ± 8130 | 19000 ± 4340 | – | – | 11300 ± 3710 | 80 | 80 ± 15 | 80 ± 15 | 60 | – | 37200 | – | Emax (HIF-1α–NanoLuc; [13]): 60%; IC50 (HIF-1α–NanoLuc; [14]): 1680 nM; IC50 ([3]; Homo sapiens, HCT-116, Table S7, confirmatory screen, 1% O2, 18 h): 26400 ± 9410 nM; Emax ([3]; Homo sapiens, HCT-116, Table S7, confirmatory screen, read-out: Viability (Luc) confirmatory Efficacy): 26 ± 7%; Emax (HRE–bla ME-180 cells; Homo sapiens, ME-180, Table S7, confirmatory screen, read-out: Viability (BLA) confirmatory Efficacy): 60 ± 38%; HCT116 3-Day Viability IC50 (HCT116 cells; Table S8, 3 days): Inactive
4 | Cn1cnc2c(F)c(Nc3ccc(Br)cc3Cl)c(C(=O)NOCCO)cc21 [Selumetinib] | – | – | – | – | – | 270 ± 60 | 10 | 92 | 1490 ± 1300 | 48 | 48 ± 10 | 48 ± 10 | 62 | Inactive | 22800 ± 3890 | Inactive | Emax (HIF-1α–NanoLuc; [13]): 62%; IC50 (HIF-1α–NanoLuc; [14]): 40 nM; HRE-bla IC50 ([1]; Table 1, ME-180 cells, 1% O2, 18 h): Inactive
5 | C[C@@H]1O[C@@H](O[C@@H]2C=C3CC[C@@H]4[C@H](CC[C@]5(C)[C@@H](c6ccc(=O)oc6)CC[C@]45O)[C@@]3(C)CC2)[C@H](O)[C@H](O)[C@H]1O [Proscillaridin A] | – | 93 ± 3 | 10 | – | 20 | – | – | – | – | – | – | – | – | Inactive | – | – | IC50 (HIF-1α–NanoLuc; [19]): 10 nM; Emax (HIF-1α–NanoLuc; [20]): 101%; Emax (HIF-1α–NanoLuc; [21]): 103 ± 3%; IC50 (HIF-1α–NanoLuc; [22]): 10 nM; Emax (HIF-1α–NanoLuc; [23]): 101%; IC50 (HIF-1α–NanoLuc; read-out: HIF-1α–NanoLuc primary IC50): 10 nM; Emax (HCT116 cells; [9]): 87 ± 20%; IC50 (HCT116 cells; [24]): 90 ± 30 nM; Emax (ME-180 cells; ME-180, 72 h, Table S8, 3 days): 98 ± 2%; IC50 (ME-180 cells; [25]): 20 nM
6 | O=c1cc(N2CCOCC2)oc2c(-c3ccccc3)cccc12 [LY-294002] | – | 35 ± 8 | 12000 ± 2250 | – | – | – | – | – | – | – | 50 ± 9 | 50 ± 9 | – | Inactive | – | Inactive | IC50 (HIF-1α–NanoLuc; Table S2, validation, read-out: Pathway inhibitors (validation) HIF-1α–NanoLuc Activity IC50): 14600 ± 3540 nM; HCT116 3-Day Viability IC50 (HCT116 cells; Table S8, 3 days): Inactive; Emax (ME-180 cells; ME-180, 72 h, Table S8, 3 days): 73 ± 4%; IC50 (ME-180 cells; [25]): 15400 ± 1040 nM
7 | CC[C@@]1(O)C(=O)OCc2c1cc1n(c2=O)Cc2cc3ccccc3nc2-1 [Camptothecin] | 84 | 84 ± 1 | – | 200 ± 60 | – | 40 | 0.27 ± 0.31 | 134 | – | – | – | – | – | – | 1000 ± 290 | Inactive | –
8 | Nc1ncn([C@@H]2O[C@H](CO)[C@@H](O)[C@H]2O)c(=O)n1 [5-Azacitidine] | 94 | 94 ± 2 | – | 11000 ± 750 | – | 18600 | 4060 ± 1490 | 80 | – | – | – | – | – | – | 13300 ± 1520 | Inactive | –
9 | COc1c(C)c2c(c(O)c1C/C=C(\C)CCC(=O)OCCN1CCOCC1)C(=O)OC2 [Mycophenolate mofetil] | 58 | 58 ± 4 | – | 210 ± 50 | 530 | 1820 ± 740 | 110 ± 60 | 93 | 1580 ± 450 | 59 | – | 59 ± 5 | 61 | Inactive | – | – | IC50 (HIF-1α–NanoLuc; Table S7, primary screen, read-out: HIF-1α–NanoLuc primary IC50): 330 nM; 72-hr Viability HCT116 IC50 (HCT116 cells; Table 1, 72 h): Inactive; Angiogenesis inhibition, result in words ([2]; co-culture assay): submicromolar concentrations
10 | C[C@H]1O[C@@H](O[C@H]2[C@@H](O)C[C@H](O[C@H]3[C@@H](O)C[C@H](O[C@H]4CC[C@@]5(C)[C@H](CC[C@@H]6[C@@H]5CC[C@]5(C)[C@@H](C7=CC(=O)OC7)CC[C@]65O)C4)O[C@@H]3C)O[C@@H]2C)C[C@H](O)[C@@H]1O [Digitoxin] | – | 97 | 30 ± 10 | – | 90 ± 30 | – | – | – | – | – | – | – | – | Inactive | – | – | IC50 (HIF-1α–NanoLuc; [19]): 30 nM; Emax (HIF-1α–NanoLuc; [20]): 124%; Emax (HIF-1α–NanoLuc; [21]): 101 ± 1%; IC50 (HIF-1α–NanoLuc; [22]): 110 ± 10 nM; Emax (HIF-1α–NanoLuc; [23]): 124%; Emax (HCT116 cells; [9]): 97 ± 8%; IC50 (HCT116 cells; [24]): 2290 ± 3130 nM; Emax (ME-180 cells; ME-180, 72 h, Table S8, 3 days): 101 ± 4%; IC50 (ME-180 cells; [25]): 90 ± 20 nM
11 | CC[C@@]1(O)C(=O)OCc2c1cc1n(c2=O)Cc2cc3c(CN(C)C)c(O)ccc3nc2-1 [Topotecan] | 131 | 131 ± 9 | – | 620 ± 380 | – | 100 ± 10 | 10 | 80 | – | – | – | – | – | – | 4300 ± 1200 | Inactive | –
